What was measured:
Coagulation factor X [1] = biological target: T1, Coagulation factor X (Homo sapiens, UniProt P00742); test: Inhibitory activity against coagulation factor Xa
[2] = biological target: Vitamin K-dependent protein C (Homo sapiens, UniProt P04070); test: Inhibitory activity against activated protein C
Serine protease 1 = Serine protease 1 (Homo sapiens, UniProt P07477); test: Inhibitory activity against trypsin
Kallikrein-1 = Kallikrein-1 (Homo sapiens, UniProt P06870); test: Inhibitory activity against kallikrein
Plasminogen = Plasminogen (Homo sapiens, UniProt P00747); test: Inhibitory activity against plasmin
Prothrombin = Prothrombin (Homo sapiens, UniProt P00734); test: Inhibitory activity against thrombin
[3] = Tested for percent bioavailability after oral administration to Sprague-Dawley rat at dosage of 4 mg/kg; conditions: in vivo, read-out: Bioavailabiility
[4] = Tested for half life value after oral administration at dosage of 4 mg/kg in rat; type: ADME, organism-based; design: dose 4 mg/kg, route oral; conditions: in vivo
[5] = Clearance after iv administration to Sprague-Dawley rat at dosage of 0.2 mg/kg; type: ADME, organism-based; design: dose 0.2 mg/kg, route intravenous; conditions: in vivo
[6] = Tested for half life value after intravenous administration at dose of 0.2 mg/kg in rat; type: ADME, organism-based; design: dose 0.2 mg/kg, route intravenous; conditions: in vivo
[7] = Tested for volume of distribution after intravenous administration to Sprague-Dawley rat at dosage of 0.2 mg/kg; type: ADME, organism-based; design: dose 0.2 mg/kg, route intravenous; conditions: in vivo, read-out: Volume of distribution
Coagulation factor X [8] = biological target: T1, Coagulation factor X; test: Tested for inhibitory activity against Coagulation factor Xa (trypsin-like serine protease) of the compound
[9] = Oral bioavailability in rat by oral dosing; type: ADME, organism-based; conditions: in vivo
[10] = Half-life was determined; type: ADME, organism-based; conditions: rat, in vivo

Chain of Kallikrein-1 (P06870 whole entry): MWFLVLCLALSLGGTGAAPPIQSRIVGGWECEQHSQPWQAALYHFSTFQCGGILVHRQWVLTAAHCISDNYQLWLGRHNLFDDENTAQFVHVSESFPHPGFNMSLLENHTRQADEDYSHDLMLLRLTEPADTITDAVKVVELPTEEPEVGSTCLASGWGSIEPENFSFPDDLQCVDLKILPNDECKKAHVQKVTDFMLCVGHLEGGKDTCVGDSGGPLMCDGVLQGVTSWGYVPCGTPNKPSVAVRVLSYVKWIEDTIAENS
Chain of Serine protease 1 (P07477 whole entry): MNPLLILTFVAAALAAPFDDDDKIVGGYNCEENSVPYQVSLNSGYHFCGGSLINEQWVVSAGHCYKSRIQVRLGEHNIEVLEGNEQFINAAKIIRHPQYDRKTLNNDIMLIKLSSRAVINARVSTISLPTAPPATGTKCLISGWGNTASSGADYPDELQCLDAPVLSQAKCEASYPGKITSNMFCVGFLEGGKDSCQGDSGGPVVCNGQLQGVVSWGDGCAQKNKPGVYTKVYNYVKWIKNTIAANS
Chain of Plasminogen (P00747 97-580 limits assumed): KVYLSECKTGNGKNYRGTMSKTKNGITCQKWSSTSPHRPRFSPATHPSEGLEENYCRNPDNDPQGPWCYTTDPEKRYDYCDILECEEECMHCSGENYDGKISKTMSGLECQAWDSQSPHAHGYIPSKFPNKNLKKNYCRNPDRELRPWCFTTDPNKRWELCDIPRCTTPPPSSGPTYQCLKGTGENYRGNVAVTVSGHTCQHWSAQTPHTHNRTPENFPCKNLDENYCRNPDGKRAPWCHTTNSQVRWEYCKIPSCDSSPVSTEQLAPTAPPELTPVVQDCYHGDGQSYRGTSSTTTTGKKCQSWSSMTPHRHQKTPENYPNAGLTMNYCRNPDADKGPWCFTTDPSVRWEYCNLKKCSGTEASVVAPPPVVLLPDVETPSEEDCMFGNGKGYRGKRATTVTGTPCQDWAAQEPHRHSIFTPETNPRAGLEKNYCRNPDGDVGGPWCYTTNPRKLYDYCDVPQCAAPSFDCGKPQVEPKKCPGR
Chain of Plasminogen (P00747 581-810 limits assumed): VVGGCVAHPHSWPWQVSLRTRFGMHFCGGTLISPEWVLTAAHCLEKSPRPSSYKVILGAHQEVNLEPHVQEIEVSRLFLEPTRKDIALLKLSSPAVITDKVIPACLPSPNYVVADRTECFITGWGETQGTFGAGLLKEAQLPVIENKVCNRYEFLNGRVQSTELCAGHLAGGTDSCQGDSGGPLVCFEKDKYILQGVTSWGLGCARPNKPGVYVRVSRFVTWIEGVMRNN
T1 sequence (P00742 41-179 limits assumed): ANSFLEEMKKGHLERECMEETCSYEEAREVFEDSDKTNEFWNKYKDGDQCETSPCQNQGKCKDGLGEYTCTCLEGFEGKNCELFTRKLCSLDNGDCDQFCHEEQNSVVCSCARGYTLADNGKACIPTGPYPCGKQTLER
T1 sequence (P00742 235-488 limits assumed): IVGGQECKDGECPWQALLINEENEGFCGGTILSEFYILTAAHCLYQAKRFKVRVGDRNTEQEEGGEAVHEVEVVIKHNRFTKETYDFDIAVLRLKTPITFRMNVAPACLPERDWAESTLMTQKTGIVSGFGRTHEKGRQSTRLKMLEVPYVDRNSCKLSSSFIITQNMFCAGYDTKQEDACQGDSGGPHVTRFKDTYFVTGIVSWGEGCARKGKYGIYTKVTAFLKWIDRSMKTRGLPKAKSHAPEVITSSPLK
Chain of Vitamin K-dependent protein C (P04070 43-197 limits assumed): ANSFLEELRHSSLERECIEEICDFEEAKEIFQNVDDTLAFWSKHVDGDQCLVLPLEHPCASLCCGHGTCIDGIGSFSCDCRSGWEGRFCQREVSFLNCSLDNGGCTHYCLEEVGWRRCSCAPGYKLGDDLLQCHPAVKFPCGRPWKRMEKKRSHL
Chain of Vitamin K-dependent protein C (P04070 212-461 limits assumed): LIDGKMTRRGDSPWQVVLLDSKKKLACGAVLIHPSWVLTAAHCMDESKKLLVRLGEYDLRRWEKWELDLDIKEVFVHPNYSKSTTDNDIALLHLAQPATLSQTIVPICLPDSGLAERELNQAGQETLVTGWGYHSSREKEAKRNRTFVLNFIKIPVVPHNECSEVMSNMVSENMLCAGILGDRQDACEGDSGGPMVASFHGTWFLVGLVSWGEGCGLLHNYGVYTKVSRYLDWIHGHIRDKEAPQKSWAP

Row | SMILES | IC50 (Coagulation factor X [1]) [µM] | IC50 [2] [µM] | IC50 (Serine protease 1) [µM] | IC50 (Kallikrein-1) [µM] | IC50 (Plasminogen) [µM] | IC50 (Prothrombin) [µM] | bioavailability [3] [%] | half-life [4] [h] | clearance [5] [mL/min/kg] | half-life [6] [h] | Vd [7] [L/kg] | Ki (Coagulation factor X [8]) [µM] | bioavailability [9] [%] | half-life [10] [h]
1 | Cc1cc(C(=O)Nc2ccc(-c3ccccc3S(N)(=O)=O)cc2)n(-c2nc3ccc(Cl)cc3s2)n1 | > 11 |  |  |  |  |  |  |  |  |  |  |  |  | 
2 | COc1ccc2cc(-n3nc(C)cc3C(=O)Nc3ccc(-c4ccccc4S(N)(=O)=O)cc3)ccc2c1 |  | > 11 | > 11 | > 11 | > 11 | > 11 |  |  |  |  |  |  |  | 
3 | NS(=O)(=O)c1ccccc1-c1ccc(NC(=O)c2cc(C(F)(F)F)nn2-c2ccc3cc(Cl)ccc3c2)cc1 | 0.004 |  |  |  |  |  |  |  |  |  |  |  |  | 
4 | Cc1cc(C(=O)Nc2ccc(-c3ccccc3S(N)(=O)=O)cc2)n(-c2cc3ccccc3cc2C(N)=O)n1 | 0.024 | > 11 | > 11 | > 11 | > 11 | > 11 |  |  |  |  |  |  |  | 
5 | Cc1cc(C(=O)Nc2ccc(-c3ccccc3S(N)(=O)=O)cc2)n(-c2cc3ccccc3cc2S(C)(=O)=O)n1 | 0.045 | > 11 | > 11 | > 11 | > 11 | > 11 |  |  |  |  |  |  |  | 
6 | Cc1cc(C(=O)Nc2ccc(-c3ccccc3S(N)(=O)=O)cc2)n(-c2cc3ccccc3cc2CN)n1 | 0.038 | > 11 | > 11 | > 11 | > 11 | > 11 |  |  |  |  |  |  |  | 
7 | Cc1cc(C(=O)Nc2ccc(-c3ccccc3S(N)(=O)=O)cc2)n(-c2ccc3cc(Br)ccc3c2)n1 | 0.018 | > 11 | > 11 | > 11 | > 11 | > 11 |  |  |  |  |  |  |  | 
8 | Cc1cc(C(=O)Nc2ccc(-c3ccccc3S(N)(=O)=O)cc2)n(-c2cc3ccccc3cc2F)n1 | 0.009 | > 11 | > 11 | > 11 | > 11 | > 11 | 22 | 6 | 17.7 | 1.7 | 2.6 | 0.0057 |  | 
9 | Cc1cc(C(=O)Nc2ccc(-c3ccccc3S(N)(=O)=O)cc2)n(-c2cc3ccccc3cc2C(=O)O)n1 | 0.376 | > 11 | > 11 | > 11 | > 11 | > 11 |  |  |  |  |  |  |  | 
10 | Cc1cc(C(=O)Nc2ccc(-c3ccccc3S(N)(=O)=O)cc2)n(-c2ccc3cc(Cl)ccc3c2)n1 | 0.011 | > 11 | > 11 | > 11 | > 11 | > 11 |  |  |  |  |  |  |  | 
11 | Cc1cc(C(=O)Nc2ccc(-c3ccccc3S(N)(=O)=O)cc2)n(-c2cc3ccccc3cc2C(=N)N)n1 | 0.021 | > 11 | > 11 | > 11 | > 11 | > 11 |  |  |  |  |  |  |  | 
12 | Cc1cc(C(=O)Nc2ccc(-c3ccccc3S(N)(=O)=O)cc2)n(-c2cc3ccccc3cc2C#N)n1 | 0.006 | > 11 | > 11 | > 11 | > 11 | > 11 |  |  |  |  |  |  |  | 
13 | Cc1cc(C(=O)Nc2ccc(-c3ccccc3S(N)(=O)=O)cc2)n(-c2cc3ccccc3cc2S(N)(=O)=O)n1 | 0.024 | > 11 | > 11 | > 11 | > 11 | > 11 |  |  |  |  |  |  |  | 
14 | Cc1cc(C(=O)Nc2ccc(-c3ccccc3S(N)(=O)=O)cc2)n(-c2cc3ccccc3cc2O)n1 | > 11 | > 11 | > 11 | > 11 | > 11 | > 11 |  |  |  |  |  |  |  | 
15 | COC(=O)c1cc2ccccc2cc1-n1nc(C)cc1C(=O)Nc1ccc(-c2ccccc2S(N)(=O)=O)cc1 | 0.545 | > 11 | > 11 | > 11 | > 11 | > 11 |  |  |  |  |  |  |  | 
16 | Cc1cc(C(=O)Nc2ccc(-c3ccccc3S(N)(=O)=O)cc2)n(-c2cc3ccccc3cc2CO)n1 | 0.483 | > 11 | > 11 | > 11 | > 11 | > 11 |  |  |  |  |  |  |  | 
17 | Cc1cc(C(=O)Nc2ccc(-c3ccccc3S(N)(=O)=O)cc2)n(-c2cc3ccccc3cc2C(=N)N(C)C)n1 | 1.65 | > 11 | > 11 | > 11 | > 11 | > 11 |  |  |  |  |  |  |  | 
18 | Cc1cc(C(=O)Nc2ccc(-c3ccccc3S(N)(=O)=O)cc2)n(-c2cc3ccccc3cc2C2=NCCN2)n1 | 7.82 | > 11 | > 11 | > 11 | > 11 | > 11 |  |  |  |  |  |  |  | 
19 | Cc1cc(C(=O)Nc2ccc(-c3ccccc3S(N)(=O)=O)cc2)n(-c2cc3ccccc3cc2Br)n1 | 0.143 | > 11 | > 11 | > 11 | > 11 | > 11 |  |  |  |  |  |  |  | 
20 | Cc1cc(C(=O)Nc2ccc(-c3ccccc3S(N)(=O)=O)cc2)n(-c2ccc3ccccc3c2)n1 | 0.104 | > 11 | > 11 | > 11 | > 11 | > 11 |  |  |  |  |  |  | 24.5 | 2.4
21 | Cc1cc(C(=O)Nc2ccc(-c3ccccc3S(N)(=O)=O)cc2)n(-c2ccc3cc(O)ccc3c2)n1 | 3.51 | > 11 | > 11 | > 11 | > 11 | > 11 |  |  |  |  |  |  |  | 
22 | NS(=O)(=O)c1ccccc1-c1ccc(NC(=O)c2cc(C(F)(F)F)nn2-c2cc3ccccc3cc2F)cc1 | 0.027 |  |  |  |  |  |  |  |  |  |  |  |  | 

— ChEMBL document CHEMBL1135946, “Design, synthesis and biological activity of novel non-amidine factor Xa inhibitors. Part 1: P(1) structure-activity relationships of the substituted 1-(2-Naphthyl)-1H-pyrazole-5-carboxylamides” (Bioorg Med Chem Lett, 2002)
